Measured values reported in patent US20040200144A1, “Plant growth regulator and a method of producing the regulator” (Dainichiseika Color & Chemicals Mfg. Co., Ltd., priority 2003, published 2004).

Experiments:
cucumber young plants = test: Dwarfing test of cucumber young plant; format: in vivo; conditions: for Plant Height / Dwarfing Rate: 5 ml per cell on 7th day, measured 20th day; for Dwarfing Rate: vs comparative group
Procedure: After seeding, the pot was placed in the same greenhouse as described above to sprout. Subsequently, on the 5th day, the cinnamic aqueous acid solutions were added to the nursery soil in the joint pots. One of the joint pots (24 cells) was prepared as a 0.05% cinnamic acid aqueous solution addition group, and 5 ml of the 0.05% cinnamic acid aqueous solution was added to the nursery soil of each cell. Another one of the join pots was prepared as a 0.2% cinnamic acid aqueous solution addition group, and 5 ml of the 0.2% cinnamic acid aqueous solution was added to the nursery soil of each cell. […] Subsequently, the cultivation of carrot young plants in each group was continued under general conditions. On the 27th day, the heights of young plants in each group were measured, the dwarfing rate (%) was calculated, and the dwarfing effect of cinnamic acid aqueous solution on carrot young plants was examined. From the results in Table 5, it became evident that the 0.05% and 0.2% cinnamic acid aqueous solutions are effective in dwarfing carrot young plants. In the same way as in Example 5 except that seeds of cauliflower were sowed, the cinnamic acid solutions were added to the nursery soil in the joint pot on the 4th day, and that heights of young plants in each group were measured on the 20th day, the dwarfing effect of cinnamic acid aqueous solution on cauliflower young plants was examined. From the results in Table 12, it became evident that the cinnamic acid aqueous solutions are effective in dwarfing cauliflower young plants. In the same way as in Example 12 except that seeds of tomato were sowed, and that the cinnamic acid solutions were added to the nursery soil of the joint pot on the 7th day, the dwarfing effect of cinnamic acid aqueous solution on tomato young plants was examined. From the results in Table 17, it became evident that the cinnamic acid aqueous solutions are effective in dwarfing tomato young plants. In the same way as in Example 17 except that seeds of cucumber were sowed, the dwarfing effect of cinnamic acid aqueous solution on cucumber young plants was examined. From the results in Table 18, it became evident that the cinnamic acid aqueous solutions are effective in dwarfing cucumber young plants.

melon young plants = test: Dwarfing test of melon young plant; format: in vivo; conditions: for Plant Height / Dwarfing Rate: 5 ml per cell on 7th day, measured 25th day; for Dwarfing Rate: vs comparative group
Procedure: After seeding, the pot was placed in the same greenhouse as described above to sprout. Subsequently, on the 5th day, the cinnamic aqueous acid solutions were added to the nursery soil in the joint pots. One of the joint pots (24 cells) was prepared as a 0.05% cinnamic acid aqueous solution addition group, and 5 ml of the 0.05% cinnamic acid aqueous solution was added to the nursery soil of each cell. Another one of the join pots was prepared as a 0.2% cinnamic acid aqueous solution addition group, and 5 ml of the 0.2% cinnamic acid aqueous solution was added to the nursery soil of each cell. […] Subsequently, the cultivation of carrot young plants in each group was continued under general conditions. On the 27th day, the heights of young plants in each group were measured, the dwarfing rate (%) was calculated, and the dwarfing effect of cinnamic acid aqueous solution on carrot young plants was examined. From the results in Table 5, it became evident that the 0.05% and 0.2% cinnamic acid aqueous solutions are effective in dwarfing carrot young plants. In the same way as in Example 5 except that seeds of cauliflower were sowed, the cinnamic acid solutions were added to the nursery soil in the joint pot on the 4th day, and that heights of young plants in each group were measured on the 20th day, the dwarfing effect of cinnamic acid aqueous solution on cauliflower young plants was examined. From the results in Table 12, it became evident that the cinnamic acid aqueous solutions are effective in dwarfing cauliflower young plants. In the same way as in Example 12 except that seeds of tomato were sowed, and that the cinnamic acid solutions were added to the nursery soil of the joint pot on the 7th day, the dwarfing effect of cinnamic acid aqueous solution on tomato young plants was examined. From the results in Table 17, it became evident that the cinnamic acid aqueous solutions are effective in dwarfing tomato young plants. In the same way as in Example 17 except that seeds of melon were sowed, and that plant heights were measured on the 25th day, the dwarfing effect of cinnamic acid aqueous solution on melon young plants was examined. From the results in Table 25, it became evident that the cinnamic acid aqueous solutions are effective in dwarfing melon young plants.

O=C(O)C=Cc1ccccc1 [cinnamic acid]
Plant Height (cucumber young plants; 0.05% aqueous solution): 7.8 cm
Dwarfing Rate (cucumber young plants; 0.05% aqueous solution): 21.2%
Plant Height (cucumber young plants; 0.2% aqueous solution): 6.2 cm
Dwarfing Rate (cucumber young plants; 0.2% aqueous solution): 37.4%
dwarfing effect (cucumber young plants; cucumber young plants, 0.05% and 0.2% aqueous solutions): effective
Plant Height (melon young plants; 0.05% aqueous solution): 6.3 cm
Dwarfing Rate (melon young plants; 0.05% aqueous solution): 4.5%
Plant Height (melon young plants; 0.2% aqueous solution): 4.1 cm
Dwarfing Rate (melon young plants; 0.2% aqueous solution): 37.9%
dwarfing effect (melon young plants; melon young plants, 0.05% and 0.2% aqueous solutions): effective
